The CheMixHub ionic liquid set

Assay: xn = mol fraction of the nth substance listed

CCCCCC[n+]1ccn(C)c1.N#C[S-] + [Cl-].[Li+] + CN1CCCC1=O
298.15 K, 101 kPa
Conditions	viscosity [mPa·s]
x1 = 0.001304, x2 = 0.1036	5.036
x1 = 0.001343, x2 = 0.0415	2.652
x1 = 0.001443, x2 = 0.07122	3.694
x1 = 0.002891, x2 = 0.1035	5.064
x1 = 0.002967, x2 = 0.07111	3.723
x1 = 0.00301, x2 = 0.04143	2.691
x1 = 0.004262, x2 = 0.1033	5.092
x1 = 0.004468, x2 = 0.071	3.75
x1 = 0.004767, x2 = 0.04136	2.745
x1 = 0.00607, x2 = 0.1032	5.12
x1 = 0.006095, x2 = 0.07088	3.806
x1 = 0.00649, x2 = 0.04129	2.765
x1 = 0.007465, x2 = 0.07079	3.848
x1 = 0.007616, x2 = 0.04124	2.776
x1 = 0.007643, x2 = 0.103	5.148
x1 = 0.008578, x2 = 0.07071	3.887
x1 = 0.008753, x2 = 0.1029	5.176
x1 = 0.009233, x2 = 0.04117	2.794
x1 = 0.01021, x2 = 0.1027	5.204
x1 = 0.0105, x2 = 0.04112	2.823
x1 = 0.0108, x2 = 0.07055	3.923
x1 = 0.01107, x2 = 0.1026	5.231
x1 = 0.01163, x2 = 0.04107	2.837
x1 = 0.01204, x2 = 0.07046	3.961

CCCCCCCCCCCC[N+](C)(C)C.[Br-] + [Cl-].[Na+] + O
298.15 K, 101 kPa
Conditions	electrical conductivity [S/m]
x1 = 2.89e-06, x2 = 0.001799	0.8786
x1 = 4.51e-06, x2 = 0.0001802	0.1179
x1 = 7.42e-06, x2 = 0.001799	0.8778
x1 = 9.37e-06, x2 = 0.0001802	0.1201
x1 = 1.357e-05, x2 = 0.001799	0.878
x1 = 1.406e-05, x2 = 0.0001802	0.1223
x1 = 2.037e-05, x2 = 0.0001802	0.1252
x1 = 2.28e-05, x2 = 0.001799	0.8786
x1 = 2.92e-05, x2 = 0.0001802	0.1294
x1 = 3.184e-05, x2 = 0.001799	0.8802
x1 = 4.038e-05, x2 = 0.0001802	0.1348
x1 = 4.071e-05, x2 = 0.001799	0.8816
x1 = 4.957e-05, x2 = 0.001799	0.8831
x1 = 5.047e-05, x2 = 0.0001802	0.1397
x1 = 5.536e-05, x2 = 0.001799	0.8846
x1 = 6.115e-05, x2 = 0.001799	0.8858
x1 = 6.183e-05, x2 = 0.0001802	0.1451
x1 = 6.694e-05, x2 = 0.001799	0.8876
x1 = 7.273e-05, x2 = 0.001799	0.8895
x1 = 7.319e-05, x2 = 0.0001801	0.1504
x1 = 7.87e-05, x2 = 0.001799	0.8913
x1 = 8.4e-05, x2 = 0.0001801	0.1556
x1 = 8.467e-05, x2 = 0.001799	0.893
x1 = 9.064e-05, x2 = 0.001799	0.8946
x1 = 9.481e-05, x2 = 0.0001801	0.1607
x1 = 9.642e-05, x2 = 0.001799	0.8963
x1 = 0.000102, x2 = 0.001799	0.8978
x1 = 0.0001071, x2 = 0.0001801	0.1667
x1 = 0.0001078, x2 = 0.001799	0.8993
x1 = 0.0001134, x2 = 0.001799	0.9008
x1 = 0.0001199, x2 = 0.0001801	0.1727
x1 = 0.0001219, x2 = 0.001799	0.9032
x1 = 0.0001275, x2 = 0.001799	0.9048
x1 = 0.0001309, x2 = 0.0001801	0.1778
x1 = 0.0001331, x2 = 0.001799	0.9066
x1 = 0.0001415, x2 = 0.001798	0.9086
x1 = 0.0001435, x2 = 0.0001801	0.1838
x1 = 0.0001498, x2 = 0.001798	0.9101
x1 = 0.0001548, x2 = 0.0001801	0.1892
x1 = 0.0001554, x2 = 0.001798	0.9111
x1 = 0.000161, x2 = 0.001798	0.9122
x1 = 0.0001673, x2 = 0.0001801	0.1949
x1 = 0.0001693, x2 = 0.001798	0.9132
x1 = 0.0001776, x2 = 0.001798	0.9143
x1 = 0.0001793, x2 = 0.0001801	0.2005
x1 = 0.0001856, x2 = 0.001798	0.9156
x1 = 0.0001914, x2 = 0.0001801	0.2061
x1 = 0.0001935, x2 = 0.001798	0.9166
x1 = 0.0002017, x2 = 0.001798	0.9175
x1 = 0.0002022, x2 = 0.0001801	0.2111
x1 = 0.0002098, x2 = 0.001798	0.9186
x1 = 0.0002138, x2 = 0.0001801	0.2164
x1 = 0.000218, x2 = 0.001798	0.9197
x1 = 0.0002251, x2 = 0.0001801	0.2214
x1 = 0.0002259, x2 = 0.001798	0.9207
x1 = 0.0002339, x2 = 0.001798	0.9217
x1 = 0.0002365, x2 = 0.0001801	0.2263
x1 = 0.000246, x2 = 0.0001801	0.2301
x1 = 0.000257, x2 = 0.0001801	0.2333
x1 = 0.0002685, x2 = 0.0001801	0.2357
x1 = 0.0002797, x2 = 0.0001801	0.2376
x1 = 0.0002912, x2 = 0.0001801	0.2394
x1 = 0.0003044, x2 = 0.0001801	0.2413
x1 = 0.000319, x2 = 0.0001801	0.2432
x1 = 0.0003359, x2 = 0.0001801	0.2454
x1 = 0.0003538, x2 = 0.0001801	0.2477
x1 = 0.0003736, x2 = 0.0001801	0.2502
x1 = 0.0003955, x2 = 0.0001801	0.2528
x1 = 0.0004254, x2 = 0.0001801	0.2566

CC[n+]1ccn(C)c1.N#C[S-] + [N-]=C=S.[NH4+]
100 kPa, x2 = 0
Conditions	electrical conductivity [S/m]	viscosity [mPa·s]
323.15 K	4.38	11.49
348.15 K	–	6.87
353.15 K	–	6.17

CCCCn1n[n+](CC)c2ccccc21.F[P-](F)(F)(F)(F)F + c1c[nH]cn1
101.3 kPa, x2 = 0.6993
Conditions	electrical conductivity [S/m]	viscosity [mPa·s]
343 K	1.1	11
353 K	1.4	7.7
363 K	1.8	5.6
373 K	2.2	5.2
383.1 K	2.9	4.2
393.1 K	3.2	3.6
403.1 K	3.8	3.1

CCCC[N+]1(C)CCCC1.N#C[C-](C#N)C#N + c1ccc2sccc2c1
101 kPa
Conditions	viscosity [mPa·s]
308.15 K, x2 = 0	20.6
308.15 K, x2 = 0.5267	11.92
328.15 K, x2 = 0.5267	7.1
338.15 K, x2 = 0.3565	6.96

N#C[C-](C#N)C#N.OCC[n+]1ccccc1 + c1ccsc1
101 kPa
Conditions	viscosity [mPa·s]
293.15 K, x1 = 0.7041	52.2
293.15 K, x1 = 1	137
298.15 K, x1 = 0.901	67.1
303.15 K, x1 = 0.4996	19.1
303.15 K, x1 = 0.901	50.9
318.15 K, x1 = 0.8044	21.1
323.15 K, x1 = 0.6	12.2
328.15 K, x1 = 0.7041	12.6
328.15 K, x1 = 0.901	17.9
333.15 K, x1 = 0.4996	7.57
333.15 K, x1 = 0.6	9.12
338.15 K, x1 = 0.4042	5.4
338.15 K, x1 = 0.4996	6.54
338.15 K, x1 = 0.7041	9.43
343.15 K, x1 = 0.4996	5.74
343.15 K, x1 = 0.8044	9.9
